For series [1] the following is noted: solution with a maximum of 1% DMSO.
The subject of series [2] is Plasmodium berghei. On the set-up: method as in PMID 23850202. To be noted: murine Plasmodium berghei model; cited from earlier work.
Series [3] concerns tocopherol (TC) biosynthesis.
Procedure: (§1) A flask was kept untreated and is considered the positive control. After 36 h, the culture was labeled with [1-(n)-^3H]GGPP (3.125 µCi/ml) in normal RPMI 1640 medium [32] during the last 16 h. The schizonts were purified by magnetic column (MACS Separation Columns “CS”, Miltenyi Biotec) [33]. The parasitaemia was estimated by microscopic examination of Giemsa-stained smears and the volume was adjusted of purified culture, according to the control, so that equal numbers of treated and untreated parasites were applied. After metabolic labelling and purification, lyophilized schizonts were used for extraction of MQ and TC. The final extract was injected into the HPLC-RT [34].
(§2) The molecules of MQ and TC were purified by an isocratic system with mobile phase methanol: ethanol (50:50 v/v), flow 0.5 ml/min and detection performed by UV absorption spectrum at a wavelength equal to 270 nm. The mobile phase was filtered on a PTFE (solvent A) and NYLON (solvent B) membrane of 0.20 µM. Radioactive fractions were dried by evaporation at 24 °C and resuspended in scintillation fluid. Quantification of the radioactivity (c.p.m.) was performed on the device Beckman 5000 β-radiation scintillation counter (Beckman, CA, USA) [34].
(§3) The IC50 was estimated by linear interpolation as compared to the drug-free controls, using the software GraphPad PRISM software. […]
Series [4] concerns menaquinone (MQ) biosynthesis.
Procedure: as §1, §2, §3
For series [5] the following is noted: cited from earlier work.

`O=C1C(O)=C(Nc2ccccc2)C(=O)c2ccccc21` [4a]: in series [1], the Solubility entry is “soluble”. Also, the “Antiplasmodial activity in vivo” value in series [2] is on record as “interesting antiplasmodial activity”.

The term inhibition denotes the drop in the measured response relative to a control, in per cent. A low value points to a weak effect. For the compound `COc1ccc(NC2=C(O)C(=O)c3ccccc3C2=O)cc1` [4c], the inhibition worked out at 49.6% in series [3] and 58.1% in series [4]. Besides, the Solubility result in series [1] is listed as “soluble”. The “Antiplasmodial activity in vivo” value in series [2] is “interesting antiplasmodial activity”.

Turning to `O=C1C(O)=C([C@H]2CC[C@H](c3ccc(Cl)cc3)CC2)C(=O)c2ccccc21` [atovaquone], in series [5], the “Binding to plasma proteins” value is reported as “high binding to plasma proteins”, the Bioavailability result is given as “low bioavailability” and the “Biopharmaceutics Classification (BCS) class” value is given as “class II”.

These data come from paper PMC6300878, “In vitro antiplasmodial activity, pharmacokinetic profiles and interference in isoprenoid pathway of 2-aniline-3-hydroxy-1.4-naphthoquinone derivatives” (Malaria Journal, 2018).
